This is an account of results in article PMC11997307, “Rat Sarcoma (RAS)-Protein-Targeting Synthetic Cell-Penetrating Peptide as an Anticancer Biomaterial” (Biomaterials Research, 2025).

Holding throughout (assay type): cell-based, human
Test [1] concerns phospho-c-RAF and phospho-ERK1/2 in MDA-MB-231 cells. Description: Western blot of RAS-MAPK pathway, MDA-MB-231. Particulars: MDA-MB-231, 10-250 μM RBP 6 h then 50 ng/ml EGF 10 min. The procedure:
Protein expression was confirmed via Western blot analysis. Briefly, 9 × 10^5 cells were cultured in 100-mm-diameter dishes. When they reached 90% confluence, the cells were starved for 18 h in serum-free medium. […] At the end of the culture period, the cells were lysed for 20 min in cold lysis buffer on ice. Protein concentration was measured using bicinchoninic acid protein assays (Thermo Fisher Scientific, MA, USA). Equal aliquots of protein (40 μg) were boiled for 7 min in 5× sample buffer and separated by 10% SDS–PAGE. Proteins were transferred onto nitrocellulose membranes, followed by washing with Tris-buffered saline (TBS) containing 0.1% Tween 20 (TBST). The membranes were then blocked for 60 min at room temperature with 5% skim milk in TBST. Following the washing procedure, the membranes were incubated with primary antibodies (RAS, phospho-ERK1/2, ERK1/2, phospho-RAF proto-oncogene serine/threonine-protein kinase [phospho-c-RAF; S338], c-RAF [Cell Signaling Technology, Beverly, MA, USA], and GAPDH [Santa Cruz Biotechnology, Inc., Santa Cruz, CA, USA]) diluted in TBST containing 5% skim milk at 4 °C for 18 h. […] The membranes were subsequently washed 3 more times, and protein bands were detected using chemiluminescence reagents (West Pico PLUS, Thermo Fisher Scientific, USA).
On the technique in general: Immunoblotting shows a protein as a band on a membrane.

For test [2], the system named is HT-29 cells. Briefly: Cell viability, CCK-8 assay, HT-29. The note with it: HT-29 (KRAS wild-type), CCK-8, 0-1,000 μM RBP, 24, 48 or 72 h, triplicate. The procedure:
(§1) The viability of the cells was determined via Cell Counting Kit-8 (CCK-8; Dojindo Laboratories, Kumamoto, Japan) assay. The cells were plated in 96-well culture plates at a density of 5 × 10^3 cells per well and incubated for 24 h at 37 °C in a humidified incubator with 5% CO2. […] After incubation, the medium was replaced with fresh medium containing 10% (v/v) CCK-8 reagent, and the cells were incubated for 2 h. Absorbance was measured at 450 nm using a microplate reader. All experiments were performed in triplicate.
(Tetrazolium assays rely on reduction of a dye to a coloured formazan, in cell work by metabolically active cells.)

Test [3] concerns MDA-MB-231 cells. Description: Scratch wound migration assay. Particulars: MDA-MB-231, serum-starved monolayer, 6-72 h. As to the method: To assess MDA-MB-231 cell migration, 2 methods were employed: a Transwell migration assay and a scratch assay. For the Transwell migration assay, 24-well Transwell plates (8-μm pore size; Costar, Corning Incorporated, Corning, NY, USA) were used to evaluate the invasive potential of the cells. […] Following a 6-h incubation period, nonmigratory cells were carefully removed from the upper surface of the membrane using a PBS-soaked cotton swab. The cells that successfully migrated through the membrane were fixed in methanol for 10 min, and Giemsa staining was used to visualize them. Images were captured using an Olympus DP72 camera at ×100 magnification, and the number of migrated cells in the treated samples was compared with that in the control samples. For the scratch assay, MDA-MB-231 cells (1 × 10^6 cells) were cultured in 6-well plates until they reached confluence. The cells were rinsed with PBS and incubated overnight in serum-free medium. A sterile 200-μl plastic pipette tip was used to create a linear scratch in the center of the monolayer. […] Images were taken immediately after scratching and again after 6, 24, 48, and 72 h of incubation using an Olympus CKX41 inverted microscope at ×20 magnification to evaluate the distance the cells migrated from the wound edge.

Test [4] concerns HCT-116 cells. Description: Cell viability, CCK-8 assay, HCT-116. Particulars: HCT-116 (KRAS G13D), CCK-8, 0-1,000 μM RBP, 24, 48 or 72 h, triplicate. The procedure: as §1
In test [5] the test system is MDA-MB-231 cells. Description: Sphere formation assay. The procedure: The sphere formation potential of the cells was evaluated under nonadherent culture conditions. The cells were cultured in ultralow-attachment 6-well plates (Corning Life Sciences, MA, USA) at a density of 2 × 10^3 cells per well, since the low overall viability of […] prevents the use of single-cell culture methods. The cells were grown in DMEM/F12 (Invitrogen, CA, USA) supplemented with B27 serum-free supplement (1:50; Invitrogen, CA, USA), human recombinant epidermal growth factor (EGF), and 50 ng/ml human recombinant basic fibroblast growth factor (PeproTech, NJ, USA) with 100 μM peptides at 37 °C with 5% CO2. Fresh medium was added every 3 to 4 d, and sphere formation was monitored. The experiment was terminated on day 10, and the number of spheres (>50 μm) was quantified.

As to `C[C@@H](O)[C@H](NC(=O)[C@H](CO)NC(=O)[C@H](CS)NC(=O)[C@H](CCCCN)NC(=O)CN)C(=O)N[C@@H](CCCNC(=N)N)C(=O)NCC(=O)N[C@@H](CCCNC(=N)N)C(=O)N[C@@H](CCCCN)C(=O)N[C@@H](CS)C(=O)N[C@@H](CS)C(=O)N[C@@H](CCCNC(=N)N)C(=O)N[C@@H](CCCNC(=N)N)C(=O)N[C@@H](CCCCN)C(=O)N[C@@H](CCCCN)C(N)=O` [RBP], the “activation of RAF (phospho-c-RAF)” value in test [1] is reported as “effectively inhibited”. The “phosphorylation of ERK1/2” value in test [1] (p-ERK/ERK, n = 3) is listed as “effectively inhibited”. Also, the “decrease in the percentage of viable cells” value in test [2] was “not significant”. In test [3], the “tumor cell migration in scratch assay” value is “significantly inhibited”. Also, the “percentage of viable cells” value in test [4] is “reduced the percentage of viable KRAS G13D mutant cells in a dose-dependent manner”. Also, in test [5] (MDA-MB-231, serum-free medium with growth factors, nonadherent conditions, after 3 d (Fig. 2C legend)), the “spherical colonies observed in RBP-treated groups” value was “no colonies >30 μm in diameter were observed”. Besides, the “sphere proliferation vs control” value in test [5] (MDA-MB-231, ultralow-attachment plates, 100 μM peptide added on the first day, 10 d) is listed as “significantly suppressed”.
